In PMC9967275, “Screening the Pathogen Box to Discover and Characterize New Cruzain and TbrCatL Inhibitors” (Pathogens, 2023):

Target: cruzain (Trypanosoma cruzi, UniProt P25779)
Assay: biochemical
Details: 0’ (no pre-incubation); sheet Screening results
Procedure: (§1) Allison Doak and Prof. Brian Shoichet (University of California San Francisco, San Francisco, CA, USA) and Prof. Conor Caffrey (University of California San Diego, San Diego, CA, USA) generously provided recombinant cruzain and TbrCatL, respectively. In vitro activity of proteases cruzain and TbrCatL was assayed as previously described. Briefly, enzyme activity was measured by monitoring the cleavage of the fluorogenic substrate […] (Z-FR-AMC) at 25 °C. Fluorescence was monitored at 340/440 nm (excitation/emission) over 5–7 min in a Synergy2 Biotek plate reader. […] DMSO and 1 μM E-64 were employed as negative and positive controls, respectively, in all assays. Two conditions were employed for both enzymes: 10′ pre-incubation of the enzyme in the presence of the compound (10′ inc) and no pre-incubation (0′). Reported values correspond to the mean and standard error of the mean (SEM) and all analyses were performed using GraphPad Prism 6.0.
(§2) For the initial screening, compounds were assayed at 5 μM. […] IC50 curves were obtained from a non-linear fit of at least seven distinct compound concentrations, in triplicate. Reported IC50 values are the mean and SEM of two independent measurements.
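Note: at 5 µM compound concentration.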

Chain of cruzain (P25779 123-337 limits assumed): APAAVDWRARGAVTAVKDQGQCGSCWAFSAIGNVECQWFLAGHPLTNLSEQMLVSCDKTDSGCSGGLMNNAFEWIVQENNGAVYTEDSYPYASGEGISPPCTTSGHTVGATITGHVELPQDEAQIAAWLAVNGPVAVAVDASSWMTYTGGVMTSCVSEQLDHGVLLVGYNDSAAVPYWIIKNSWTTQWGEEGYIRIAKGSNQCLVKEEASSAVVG

Compared with `COc1ccccc1C(C)NCC(=O)Nc1cc(C(F)(F)F)ccc1Cl` (centres unmarked) [MMV020321], `CC1CCCN(C(=O)C(C)Nc2cc(Cl)ccc2N2CCOCC2)C1` (centres unmarked) [MMV020388] is higher in “Cruzain Inhibition 0’” value: 0.3% for the first, 3.4% for the second.

Same assay, conditions: 0’ (pre-incubation time); Pathogen Box screening results

With `Cc1ccc(-c2cc(C(=O)Nc3cccnc3)c3cc(Br)ccc3n2)cc1` [MMV016838] the “Cruzain Inhibition 0’” value was 4.3%.

Same assay, conditions: 0’ (pre-incubation time); sheet "Screening results"

Compared with `O=C(C1CCN(c2nnnn2-c2ccccc2)CC1)N1CCc2ccccc2C1` [MMV009135], `NCC(=O)N1CCn2c(nc(-c3ccccc3)c2Nc2ccc3c(c2)OCO3)C1` [MMV011691] is higher in “Cruzain 0’ Inhibition” value: 0.1% for the first, 1.8% for the second.

Compared with `COc1ccc(-c2cnc3ccc(NCc4ccc(S(N)(=O)=O)cc4)nn23)cn1` [MMV010545], `COc1cc(-c2cc(-c3ccc(S(C)(=O)=O)cc3)cnc2N)ccc1O` [MMV010576] is higher in “Cruzain 0’ Inhibition” value: 0.8% for the first, 1.1% for the second.

Going from `Cc1cc(Nc2ccc(C(F)(F)F)cc2)n2ccnc2n1` [MMV011229] to `Cc1nn(C)cc1C(C)Nc1nncc(-c2ccc(C(F)(F)F)cc2)n1` (centres unmarked) [MMV019993], the “Cruzain 0’ Inhibition” value falls from -0.9% to -5%.

Going from `COc1ccc(CCN2CCC(NCc3cccc(N(C)C)c3)CC2)cc1` [MMV011511] to `COc1cccc(CC(=O)N2CCC(n3c(C)nc4ccc(F)cc43)CC2)c1` [MMV020081], the “Cruzain 0’ Inhibition” value falls from 5.7% to 5%.

Compared with `FC(F)(F)c1cnc(Sc2nnc(-c3ccncc3)o2)c(Cl)c1` [MMV011765], `CC(C)NCC(=O)Nc1cccc(C(=O)Nc2cccc(C(F)(F)F)c2)c1` [MMV020165] is lower in “Cruzain 0’ Inhibition” value: 0.7% for the first, -1.7% for the second.

Compared with `CCC(NC(=O)c1ccccc1NC(=O)c1ccc(C)cc1)C(=O)OC` (centres unmarked) [MMV019551], `CCOc1ccccc1C(=O)Nc1cccc(-c2nc3ncccn3c2C)c1` [MMV019790] is higher in “Cruzain 0’ Inhibition” value: -0.5% for the first, 3.2% for the second.

Compared with `Cc1ccc(NC(=O)c2cc(S(=O)(=O)NC(C)(C)C)ccc2C)nc1` [MMV020289], `CC(C(=O)N1CCCC1)N1CCN(S(=O)(=O)c2ccc(C(C)(C)C)cc2)CC1` (centres unmarked) [MMV020291] is higher in “Cruzain 0’ Inhibition” value: 1% for the first, 2.5% for the second.

Same assay, conditions: 10’ (pre-incubation time); Pathogen Box screening results

For `Cc1ccc(-c2cc(C(=O)Nc3cccnc3)c3cc(Br)ccc3n2)cc1` [MMV016838], the “Cruzain Inhibition 10’” value was 7.6%.

Same assay, conditions: 10’ (pre-incubation time); sheet "Screening results"

Going from `O=C(C1CCN(c2nnnn2-c2ccccc2)CC1)N1CCc2ccccc2C1` [MMV009135] to `NCC(=O)N1CCn2c(nc(-c3ccccc3)c2Nc2ccc3c(c2)OCO3)C1` [MMV011691], the “Cruzain 10’ Inhibition” value falls from 0.1% to -3.4%.

First: COc1ccc(-c2cnc3ccc(NCc4ccc(S(N)(=O)=O)cc4)nn23)cn1 [MMV010545]
Second: COc1cc(-c2cc(-c3ccc(S(C)(=O)=O)cc3)cnc2N)ccc1O [MMV010576]
The “Cruzain 10’ Inhibition” value of the first is lower: 3.6% for the first, 4% for the second.

Going from `Cc1cc(Nc2ccc(C(F)(F)F)cc2)n2ccnc2n1` [MMV011229] to `Cc1nn(C)cc1C(C)Nc1nncc(-c2ccc(C(F)(F)F)cc2)n1` (centres unmarked) [MMV019993], the “Cruzain 10’ Inhibition” value falls from 1.4% to -1.8%.

First: COc1ccc(CCN2CCC(NCc3cccc(N(C)C)c3)CC2)cc1 [MMV011511]
Second: COc1cccc(CC(=O)N2CCC(n3c(C)nc4ccc(F)cc43)CC2)c1 [MMV020081]
The “Cruzain 10’ Inhibition” value of the first is lower: 3.6% for the first, 10% for the second.

First: FC(F)(F)c1cnc(Sc2nnc(-c3ccncc3)o2)c(Cl)c1 [MMV011765]
Second: CC(C)NCC(=O)Nc1cccc(C(=O)Nc2cccc(C(F)(F)F)c2)c1 [MMV020165]
The “Cruzain 10’ Inhibition” value of the first is lower: -0.5% for the first, 12% for the second.

Compared with `CCC(NC(=O)c1ccccc1NC(=O)c1ccc(C)cc1)C(=O)OC` (centres unmarked) [MMV019551], `CCOc1ccccc1C(=O)Nc1cccc(-c2nc3ncccn3c2C)c1` [MMV019790] is higher in “Cruzain 10’ Inhibition” value: 1.2% for the first, 4% for the second.

Going from `Cc1ccc(NC(=O)c2cc(S(=O)(=O)NC(C)(C)C)ccc2C)nc1` [MMV020289] to `CC(C(=O)N1CCCC1)N1CCN(S(=O)(=O)c2ccc(C(C)(C)C)cc2)CC1` (centres unmarked) [MMV020291], the “Cruzain 10’ Inhibition” value rises from 1.9% to 6%.

Same assay, conditions: 10’ (pre-incubation); sheet Screening results

Compared with `COc1ccccc1C(C)NCC(=O)Nc1cc(C(F)(F)F)ccc1Cl` (centres unmarked) [MMV020321], `CC1CCCN(C(=O)C(C)Nc2cc(Cl)ccc2N2CCOCC2)C1` (centres unmarked) [MMV020388] is higher in “Cruzain Inhibition 10’” value: -0.8% for the first, 4.5% for the second.

Target: T1, TbrCatL (Trypanosoma brucei rhodesiense, UniProt Q95PM0)
T1 construct: Conor Caffrey (University of California San Diego)
Assay: TbrCatL enzymatic inhibition assay (cleavage of fluorogenic substrate Z-FR-AMC)
Type: biochemical
Details: 0’ (no pre-incubation); sheet Screening results
Procedure: as §1, §2

T1 sequence (Q95PM0 entry or part of it): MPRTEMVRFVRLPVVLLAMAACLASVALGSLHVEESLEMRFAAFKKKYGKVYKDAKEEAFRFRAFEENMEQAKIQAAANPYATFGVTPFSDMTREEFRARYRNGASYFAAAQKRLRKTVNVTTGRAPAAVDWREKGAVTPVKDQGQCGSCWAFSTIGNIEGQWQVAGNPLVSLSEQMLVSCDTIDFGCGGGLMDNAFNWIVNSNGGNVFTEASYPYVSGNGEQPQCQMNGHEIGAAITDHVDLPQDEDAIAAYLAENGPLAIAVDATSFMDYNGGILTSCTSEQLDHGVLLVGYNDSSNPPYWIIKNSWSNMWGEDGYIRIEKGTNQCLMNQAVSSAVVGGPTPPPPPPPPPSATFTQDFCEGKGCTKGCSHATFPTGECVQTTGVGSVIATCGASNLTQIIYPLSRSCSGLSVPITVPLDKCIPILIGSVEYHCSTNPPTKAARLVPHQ

Compared with `COc1ccccc1C(C)NCC(=O)Nc1cc(C(F)(F)F)ccc1Cl` (centres unmarked) [MMV020321], `CC1CCCN(C(=O)C(C)Nc2cc(Cl)ccc2N2CCOCC2)C1` (centres unmarked) [MMV020388] is higher in “TbrCatL Inhibition 0’” value: -9% for the first, 3.3% for the second.

Same assay, conditions: 0’ (pre-incubation time); Pathogen Box screening results

`Cc1ccc(-c2cc(C(=O)Nc3cccnc3)c3cc(Br)ccc3n2)cc1` [MMV016838] was tested, and the “TbrCatL Inhibition 0’” value was 1.7%.

Same assay, conditions: 0’ (pre-incubation time); sheet "Screening results"

First: O=C(C1CCN(c2nnnn2-c2ccccc2)CC1)N1CCc2ccccc2C1 [MMV009135]
Second: NCC(=O)N1CCn2c(nc(-c3ccccc3)c2Nc2ccc3c(c2)OCO3)C1 [MMV011691]
The “TbrCatL 0’ Inhibition” value of the first is higher: -1.2% for the first, -1.7% for the second.

First: COc1ccc(-c2cnc3ccc(NCc4ccc(S(N)(=O)=O)cc4)nn23)cn1 [MMV010545]
Second: COc1cc(-c2cc(-c3ccc(S(C)(=O)=O)cc3)cnc2N)ccc1O [MMV010576]
The “TbrCatL 0’ Inhibition” value of the first is lower: -3.2% for the first, 0.5% for the second.

First: Cc1cc(Nc2ccc(C(F)(F)F)cc2)n2ccnc2n1 [MMV011229]
Second: Cc1nn(C)cc1C(C)Nc1nncc(-c2ccc(C(F)(F)F)cc2)n1 (centres unmarked) [MMV019993]
The “TbrCatL 0’ Inhibition” value of the first is lower: -1% for the first, 0.6% for the second.

Compared with `COc1ccc(CCN2CCC(NCc3cccc(N(C)C)c3)CC2)cc1` [MMV011511], `COc1cccc(CC(=O)N2CCC(n3c(C)nc4ccc(F)cc43)CC2)c1` [MMV020081] is higher in “TbrCatL 0’ Inhibition” value: 0.4% for the first, 1.6% for the second.

Going from `FC(F)(F)c1cnc(Sc2nnc(-c3ccncc3)o2)c(Cl)c1` [MMV011765] to `CC(C)NCC(=O)Nc1cccc(C(=O)Nc2cccc(C(F)(F)F)c2)c1` [MMV020165], the “TbrCatL 0’ Inhibition” value rises from -4% to 1.8%.

First: CCC(NC(=O)c1ccccc1NC(=O)c1ccc(C)cc1)C(=O)OC (centres unmarked) [MMV019551]
Second: CCOc1ccccc1C(=O)Nc1cccc(-c2nc3ncccn3c2C)c1 [MMV019790]
The “TbrCatL 0’ Inhibition” value of the first is lower: -0.4% for the first, 8% for the second.

Going from `Cc1ccc(NC(=O)c2cc(S(=O)(=O)NC(C)(C)C)ccc2C)nc1` [MMV020289] to `CC(C(=O)N1CCCC1)N1CCN(S(=O)(=O)c2ccc(C(C)(C)C)cc2)CC1` (centres unmarked) [MMV020291], the “TbrCatL 0’ Inhibition” value rises from 1.9% to 4.3%.

Same assay, conditions: 10’ (pre-incubation time); Pathogen Box screening results

In the case of `Cc1ccc(-c2cc(C(=O)Nc3cccnc3)c3cc(Br)ccc3n2)cc1` [MMV016838], the “TbrCatL Inhibition 10’” value is reported as 0.3%.

Same assay, conditions: 10’ (pre-incubation time); sheet "Screening results"

Compared with `O=C(C1CCN(c2nnnn2-c2ccccc2)CC1)N1CCc2ccccc2C1` [MMV009135], `NCC(=O)N1CCn2c(nc(-c3ccccc3)c2Nc2ccc3c(c2)OCO3)C1` [MMV011691] is lower in “TbrCatL 10’ Inhibition” value: 6% for the first, 1.3% for the second.

Compared with `COc1ccc(-c2cnc3ccc(NCc4ccc(S(N)(=O)=O)cc4)nn23)cn1` [MMV010545], `COc1cc(-c2cc(-c3ccc(S(C)(=O)=O)cc3)cnc2N)ccc1O` [MMV010576] is lower in “TbrCatL 10’ Inhibition” value: 7% for the first, 0.9% for the second.

Compared with `Cc1cc(Nc2ccc(C(F)(F)F)cc2)n2ccnc2n1` [MMV011229], `Cc1nn(C)cc1C(C)Nc1nncc(-c2ccc(C(F)(F)F)cc2)n1` (centres unmarked) [MMV019993] is lower in “TbrCatL 10’ Inhibition” value: 6% for the first, -3.6% for the second.

Compared with `COc1ccc(CCN2CCC(NCc3cccc(N(C)C)c3)CC2)cc1` [MMV011511], `COc1cccc(CC(=O)N2CCC(n3c(C)nc4ccc(F)cc43)CC2)c1` [MMV020081] is higher in “TbrCatL 10’ Inhibition” value: 9% for the first, 18% for the second.

Going from `FC(F)(F)c1cnc(Sc2nnc(-c3ccncc3)o2)c(Cl)c1` [MMV011765] to `CC(C)NCC(=O)Nc1cccc(C(=O)Nc2cccc(C(F)(F)F)c2)c1` [MMV020165], the “TbrCatL 10’ Inhibition” value rises from -1.2% to 5%.

Compared with `CCC(NC(=O)c1ccccc1NC(=O)c1ccc(C)cc1)C(=O)OC` (centres unmarked) [MMV019551], `CCOc1ccccc1C(=O)Nc1cccc(-c2nc3ncccn3c2C)c1` [MMV019790] is lower in “TbrCatL 10’ Inhibition” value: 3.2% for the first, -0.3% for the second.

Compared with `Cc1ccc(NC(=O)c2cc(S(=O)(=O)NC(C)(C)C)ccc2C)nc1` [MMV020289], `CC(C(=O)N1CCCC1)N1CCN(S(=O)(=O)c2ccc(C(C)(C)C)cc2)CC1` (centres unmarked) [MMV020291] is higher in “TbrCatL 10’ Inhibition” value: 1.3% for the first, 8% for the second.

Same assay, conditions: 10’ (pre-incubation); sheet Screening results

First: COc1ccccc1C(C)NCC(=O)Nc1cc(C(F)(F)F)ccc1Cl (centres unmarked) [MMV020321]
Second: CC1CCCN(C(=O)C(C)Nc2cc(Cl)ccc2N2CCOCC2)C1 (centres unmarked) [MMV020388]
The “TbrCatL Inhibition 10’” value of the first is lower: -10% for the first, 0.2% for the second.
